Source: PubChem BioAssay AID256 (DTP/NCI, 2004)
“And” between values parts separate entries of the source, which are not always exact repeats. Identical values can stand only once. Toxic doses and inconclusive results are not listed. The calls were made as follows: active = survival T/C of 150% or more; inactive = T/C below 125% in these data.

System: CD2F1 mice, L1210 leukemia ip, survival T/C
Experiment: NCI In Vivo Anticancer Drug Screen. Data for tumor model L1210 Leukemia (intraperitoneal) in CD2F1 (CDF1) mice
Conditions: higher = longer survival
Outline: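 Mice carrying a transplanted tumor received test compound or vehicle alone. The value is the measurement in the treated group divided by that in the vehicle-treated control group.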

[1] = endpoint: mean survival time, dose: 50.0 mg/kg/injection, schedule: Q01DX009 (ip), vehicle: saline with Tween-80
[2] = endpoint: mean survival time, dose: 100.0 mg/kg/injection, schedule: Q01DX009 (ip), vehicle: saline with Tween-80
[3] = endpoint: mean survival time, dose: 100.0 mg/kg/injection, schedule: Q04DX002 (ip), vehicle: saline with Tween-80
[4] = endpoint: mean survival time, dose: 200.0 mg/kg/injection, schedule: Q04DX002 (ip), vehicle: saline with Tween-80
[5] = endpoint: mean survival time, dose: 400.0 mg/kg/injection, schedule: Q04DX002 (ip), vehicle: saline with Tween-80
[6] = endpoint: mean survival time, dose: 200.0 mg/kg/injection, schedule: Q01DX009 (ip), vehicle: saline with Tween-80

Measured: T/C

Nc1ncnc2c1c1c(=S)[nH]c(=S)[nH]c1n2C1OC(CO)C(O)C1O (configuration not stated)
inactive: endpoint: mean survival time, dose: 12.5 mg/kg/injection, schedule: Q01DX005 (ip), vehicle: distilled water + Tween-80 104 % of control | endpoint: mean survival time, dose: 25.0 mg/kg/injection, schedule: Q01DX005 (ip), vehicle: distilled water + Tween-80 105 % of control | endpoint: mean survival time, dose: 50.0 mg/kg/injection, schedule: Q01DX005 (ip), vehicle: distilled water + Tween-80 107 % of control | endpoint: mean survival time, dose: 100.0 mg/kg/injection, schedule: Q01DX005 (ip), vehicle: distilled water + Tween-80 104 % of control | endpoint: mean survival time, dose: 200.0 mg/kg/injection, schedule: Q01DX005 (ip), vehicle: distilled water + Tween-80 102 % of control

CC(=O)C1CCC2C3CC=C4CC(n5c(=O)cc[nH]c5=O)CCC4(C)C3CCC12C (configuration not stated)
inactive: endpoint: mean survival time, dose: 12.5 mg/kg/injection, schedule: Q04DX003 (ip), vehicle: Klucel (hydroxypropylcellulose) (HPC) 97 % of control | endpoint: mean survival time, dose: 25.0 mg/kg/injection, schedule: Q04DX003 (ip), vehicle: Klucel (hydroxypropylcellulose) (HPC) 98 % of control | endpoint: mean survival time, dose: 50.0 mg/kg/injection, schedule: Q04DX003 (ip), vehicle: Klucel (hydroxypropylcellulose) (HPC) 101 % of control and 103 % of control | endpoint: mean survival time, dose: 100.0 mg/kg/injection, schedule: Q04DX003 (ip), vehicle: Klucel (hydroxypropylcellulose) (HPC) 92 % of control and 101 % of control | endpoint: mean survival time, dose: 200.0 mg/kg/injection, schedule: Q04DX003 (ip), vehicle: Klucel (hydroxypropylcellulose) (HPC) 95 % of control | endpoint: mean survival time, dose: 400.0 mg/kg/injection, schedule: Q04DX003 (ip), vehicle: Klucel (hydroxypropylcellulose) (HPC) 90 % of control

CN(Cc1ccccc1)CC1(CO)CC=CCC1 (configuration not stated)
inactive: endpoint: mean survival time, dose: 75.0 mg/kg/injection, schedule: Q01DX001 (ip), vehicle: saline 97 % of control | endpoint: mean survival time, dose: 150.0 mg/kg/injection, schedule: Q01DX001 (ip), vehicle: saline 100 % of control

CC(=O)OCC1OC(n2cc(CBr)nn2)C(OC(C)=O)C(OC(C)=O)C1OC(C)=O (configuration not stated)
inactive: endpoint: mean survival time, dose: 3.12 mg/kg/injection, schedule: Q01DX009 (ip), vehicle: saline with Tween-80 94 % of control and 96 % of control | endpoint: mean survival time, dose: 6.25 mg/kg/injection, schedule: Q01DX009 (ip), vehicle: saline with Tween-80 98 % of control and 102 % of control | endpoint: mean survival time, dose: 6.25 mg/kg/injection, schedule: Q01DX009 (ip), vehicle: suspension in saline 101 % of control | endpoint: mean survival time, dose: 6.25 mg/kg/injection, schedule: Q04DX003 (ip), vehicle: suspension in saline 100 % of control | endpoint: mean survival time, dose: 7.5 mg/kg/injection, schedule: Q01DX009 (ip), vehicle: saline 98 % of control | endpoint: mean survival time, dose: 12.5 mg/kg/injection, schedule: Q01DX009 (ip), vehicle: saline with Tween-80 94 % of control and 104 % of control | endpoint: mean survival time, dose: 12.5 mg/kg/injection, schedule: Q01DX009 (ip), vehicle: suspension in saline 102 % of control | endpoint: mean survival time, dose: 12.5 mg/kg/injection, schedule: Q04DX003 (ip), vehicle: suspension in saline 107 % of control | endpoint: mean survival time, dose: 15.0 mg/kg/injection, schedule: Q01DX009 (ip), vehicle: saline 100 % of control | endpoint: mean survival time, dose: 25.0 mg/kg/injection, schedule: Q01DX009 (ip), vehicle: saline with Tween-80 102 % of control and 108 % of control | endpoint: mean survival time, dose: 25.0 mg/kg/injection, schedule: Q01DX009 (ip), vehicle: suspension in saline 101 % of control | endpoint: mean survival time, dose: 25.0 mg/kg/injection, schedule: Q04DX003 (ip), vehicle: suspension in saline 100 % of control | endpoint: mean survival time, dose: 30.0 mg/kg/injection, schedule: Q01DX009 (ip), vehicle: saline 98 % of control | [1] 95 % of control and 102 % of control | endpoint: mean survival time, dose: 50.0 mg/kg/injection, schedule: Q01DX009 (ip), vehicle: suspension in saline 96 % of control | endpoint: mean survival time, dose: 50.0 mg/kg/injection, schedule: Q04DX003 (ip), vehicle: suspension in saline 103 % of control | endpoint: mean survival time, dose: 60.0 mg/kg/injection, schedule: Q01DX009 (ip), vehicle: saline 102 % of control | [2] 102 % of control

CC(=O)O.[Ni]
inactive: endpoint: mean survival time, dose: 40.0 mg/kg/injection, schedule: Q01DX001 (ip), vehicle: saline 118 % of control

O=C1NC(=O)C(=Cc2cc3c(cc2Br)OCO3)C(=O)N1
inactive: endpoint: mean survival time, dose: 25.0 mg/kg/injection, schedule: Q01DX009 (ip), vehicle: Klucel (hydroxypropylcellulose) (HPC) 91 % of control | endpoint: mean survival time, dose: 50.0 mg/kg/injection, schedule: Q01DX009 (ip), vehicle: Klucel (hydroxypropylcellulose) (HPC) 93 % of control | endpoint: mean survival time, dose: 100.0 mg/kg/injection, schedule: Q01DX009 (ip), vehicle: Klucel (hydroxypropylcellulose) (HPC) 89 % of control | [3] 104 % of control | endpoint: mean survival time, dose: 200.0 mg/kg/injection, schedule: Q01DX009 (ip), vehicle: Klucel (hydroxypropylcellulose) (HPC) 100 % of control | [4] 112 % of control | [5] 108 % of control

O=C=Nc1ccc(Cl)c(Cl)c1 (tested in a mixture with another compound)
inactive: endpoint: mean survival time, dose: 50.0 mg/kg/injection, schedule: Q04DX002 (ip), vehicle: saline with Tween-80 97 % of control | [3] 108 % of control | [4] 93 % of control | [5] 89 % of control

NC(=O)/C=C/C(=O)NC(=O)Cc1ccccc1
inactive: endpoint: mean survival time, dose: 3.0 mg/kg/injection, schedule: Q01DX009 (ip), vehicle: saline with Tween-80 97 % of control | endpoint: mean survival time, dose: 6.0 mg/kg/injection, schedule: Q01DX009 (ip), vehicle: saline with Tween-80 98 % of control | endpoint: mean survival time, dose: 12.0 mg/kg/injection, schedule: Q01DX009 (ip), vehicle: saline with Tween-80 92 % of control

CC1(C)OC2C(CO)OC(n3nc(SCc4ccccc4)c(=S)[nH]c3=O)C2O1 (configuration not stated)
inactive: endpoint: median survival time, dose: 12.5 mg/kg/injection, schedule: Q01DX005 (ip), vehicle: distilled water + Tween-80 96 % of control | endpoint: median survival time, dose: 25.0 mg/kg/injection, schedule: Q01DX005 (ip), vehicle: distilled water + Tween-80 103 % of control | endpoint: median survival time, dose: 50.0 mg/kg/injection, schedule: Q01DX005 (ip), vehicle: distilled water + Tween-80 96 % of control | endpoint: median survival time, dose: 100.0 mg/kg/injection, schedule: Q01DX005 (ip), vehicle: distilled water + Tween-80 96 % of control | endpoint: median survival time, dose: 200.0 mg/kg/injection, schedule: Q01DX005 (ip), vehicle: distilled water + Tween-80 95 % of control

C=C1c2cccc(O)c2C(O)=C2C(=O)[C@]3(O)C(O)=C(C(N)=O)C(=O)[C@@H](N(C)C)[C@@H]3[C@@H](O)[C@H]12
inactive: endpoint: median survival time, dose: 12.5 mg/kg/injection, schedule: Q01DX009 (ip), vehicle: Klucel (hydroxypropylcellulose) (HPC) 96 % of control | endpoint: median survival time, dose: 25.0 mg/kg/injection, schedule: Q01DX009 (ip), vehicle: Klucel (hydroxypropylcellulose) (HPC) 104 % of control | endpoint: median survival time, dose: 50.0 mg/kg/injection, schedule: Q01DX009 (ip), vehicle: Klucel (hydroxypropylcellulose) (HPC) 107 % of control | endpoint: median survival time, dose: 100.0 mg/kg/injection, schedule: Q01DX009 (ip), vehicle: Klucel (hydroxypropylcellulose) (HPC) 114 % of control

[O-][n+]1cccc2ccc3ccccc3c21
inactive: endpoint: mean survival time, dose: 50.0 mg/kg/injection, schedule: Q01DX009 (ip), vehicle: other 101 % of control | endpoint: mean survival time, dose: 100.0 mg/kg/injection, schedule: Q01DX009 (ip), vehicle: other 101 % of control

[Co].[N-]=C=S.[N-]=C=S.[N-]=C=S.[NH2-].[NH2-].[NH2-]
inactive: endpoint: mean survival time, dose: 50.0 mg/kg/injection, schedule: Q01DX001 (ip), vehicle: saline with Tween-80 98 % of control and 101 % of control

CCCCCCCCCC(O)CCCCCC (configuration not stated)
inactive: endpoint: mean survival time, dose: 200.0 mg/kg/injection, schedule: Q04DX003 (ip), vehicle: other 108 % of control | endpoint: mean survival time, dose: 400.0 mg/kg/injection, schedule: Q04DX003 (ip), vehicle: other 96 % of control

Cc1ccc(S(=O)(=O)N/N=C2\CC3CCC2(C)C3(C)C)cc1 (configuration not stated)
inactive: [1] 96 % of control | [2] 88 % of control | [6] 100 % of control

Cc1cccc(NC(=O)COc2cc(Cl)c(Cl)cc2Cl)c1
inactive: [3] 98 % of control | [4] 98 % of control | [5] 94 % of control

O=C(Nc1ccc(S(=O)(=O)F)c(Cl)c1)Oc1ccccc1
inactive: [2] 101 % of control | endpoint: mean survival time, dose: 100.0 mg/kg/injection, schedule: Q04DX003 (ip), vehicle: saline 95 % of control | [6] 100 % of control | endpoint: mean survival time, dose: 200.0 mg/kg/injection, schedule: Q04DX003 (ip), vehicle: saline 95 % of control | endpoint: mean survival time, dose: 400.0 mg/kg/injection, schedule: Q01DX009 (ip), vehicle: saline with Tween-80 97 % of control | endpoint: mean survival time, dose: 400.0 mg/kg/injection, schedule: Q04DX003 (ip), vehicle: saline 101 % of control

N=c1nc2c3ccccc3nnn2c2ccccc12
inactive: endpoint: mean survival time, dose: 50.0 mg/kg/injection, schedule: Q01DX001 (ip), vehicle: Klucel (hydroxypropylcellulose) (HPC) 101 % of control | endpoint: mean survival time, dose: 100.0 mg/kg/injection, schedule: Q01DX001 (ip), vehicle: Klucel (hydroxypropylcellulose) (HPC) 112 % of control

O=C(CCCN1CCC2(CC1)CNC(=O)N2c1ccccc1)c1ccc(F)cc1
inactive: endpoint: mean survival time, dose: 100.0 mg/kg/injection, schedule: Q01DX001 (ip), vehicle: saline with Tween-80 101 % of control | endpoint: mean survival time, dose: 200.0 mg/kg/injection, schedule: Q01DX001 (ip), vehicle: saline with Tween-80 98 % of control | endpoint: mean survival time, dose: 400.0 mg/kg/injection, schedule: Q01DX001 (ip), vehicle: saline with Tween-80 91 % of control
